{
  "source": "ChEMBL document CHEMBL5226389",
  "about": "“Isolation of the Anti-Inflammatory Agent Myceliostatin from a Methionine-Enriched Culture of Myceliophthora thermophila ATCC 42464” (J Nat Prod, 2023)",
  "key": {"RAW264.7 [1]": {"test_system": "RAW264.7", "assay": "Inhibition of LPS-induced NO production in mouse RAW264.7 cells at 0.3 to 3 microg/ml incubated for 24 hrs by griess reagent based microplate reader analysis", "assay_type": "functional, cell-based", "settings": "dose 0.3-3 µg/ml"}, "RAW264.7 [2]": {"test_system": "RAW264.7", "assay": "Cytotoxicity against mouse RAW264.7 cells assessed as reduction in cell viability at 3 microg/ml incubated for 24 hrs by MTT assay", "assay_type": "toxicity, cell-based", "settings": "raw264.7, 24 h, dose 3 µg/ml"}, "RAW264.7 [3]": {"test_system": "RAW264.7", "assay": "Antiinflammatory activity in mouse RAW264.7 cells assessed as inhibition of LPS-induced NFkB p65 activation at 3 to 10 microg/ml for 2 hrs followed by LPS stimulation for 2 hrs", "assay_type": "functional, cell-based", "settings": "dose 3-10 µg/ml, time 4.0 hrs"}, "RAW264.7 [4]": {"test_system": "RAW264.7", "assay": "Antiinflammatory activity in LPS-stimulated mouse RAW264.7 cells assessed as inhibition of IL-6 level incubated for 24 hrs by RT-PCR analysis", "assay_type": "functional, cell-based"}, "RAW264.7 [5]": {"test_system": "RAW264.7", "assay": "Antiinflammatory activity in LPS-stimulated mouse RAW264.7 cells assessed as inhibition of IL-1beta level incubated for 24 hrs by RT-PCR analysis", "assay_type": "functional, cell-based"}, "RAW264.7 [6]": {"test_system": "RAW264.7", "assay": "Inhibition of LPS-induced ROS production in mouse RAW264.7 cells at 3 to 10 microg/ml preincubated for 1 hr followed by LPS stimulation and measured after 24 hrs by DCFH-DA staining based fluorescence analysis", "assay_type": "functional, cell-based", "settings": "dose 3-10 µg/ml, time 25.0 hrs"}, "RAW264.7 [7]": {"test_system": "RAW264.7", "assay": "Cytotoxicity against mouse RAW264.7 cells assessed as reduction in cell viability at 10 microg/ml incubated for 4 hrs by MTT assay", "assay_type": "toxicity, cell-based", "settings": "raw264.7, 4 h, dose 10 µg/ml"}},
  "note": "The source made the active and inactive calls. No cut-off for these calls is given here.",
  "data": [
    {"smiles": "C/C=C(\\C)[C@H]1C(C)=C[C@@]2(C)C[C@@H](C)CC[C@@H]2[C@H]1C(=O)C1=C(SC)[C@](O)(CC(C)C)NC1=O", "values": [
      {"measurement": "inhibition", "setting": "RAW264.7 [1]", "result": "Active"},
      {"measurement": "Activity", "setting": "RAW264.7 [2]", "result": "Non-Toxic"}
    ]},
    {"smiles": "C/C=C(\\C)[C@H]1C(C)=C[C@@]2(C)C[C@@H](C)CC[C@@H]2[C@H]1C(=O)C1=C(SC)[C@@](O)(CC(C)C)NC1=O", "values": [
      {"measurement": "inhibition", "setting": "RAW264.7 [1]", "result": "Active"},
      {"measurement": "Activity", "setting": "RAW264.7 [3]", "result": "Active"},
      {"measurement": "Activity", "setting": "RAW264.7 [4]", "result": "Active"},
      {"measurement": "Activity", "setting": "RAW264.7 [2]", "result": "Non-Toxic"},
      {"measurement": "Activity", "setting": "RAW264.7 [5]", "result": "Active"},
      {"measurement": "inhibition", "setting": "RAW264.7 [6]", "result": "Active"},
      {"measurement": "Activity", "setting": "RAW264.7 [7]", "result": "Non-Toxic"}
    ]}
  ]
}
